Converted amounts (≈) assume the structure as drawn.
What was measured:
Format in all cases: cell-based
Aspergillus fumigatus = test: Antifungal MIC, microtiter broth dilution; details: Aspergillus fumigatus strain ATCC 26933; 35° C., 24-48 hours
Method: (§1) The antifungal activity for the hydroxyesters of 7-desmethylrapamycin of this invention was confirmed in a standard pharmacological test procedure which measured the ability of the compound being evaluated to inhibit fungal growth. 7-Desmethylrapamycin 42-ester with 3-hydroxy-2-(hydroxymethyl)-2-methylpropionic acid (Compound I) was evaluated as a representative compound of this invention. The procedure used and results obtained are briefly described below. A 96 U-bottom microtiter plate was filled (50 μl/well) with RPMI 1640. The compounds to be evaluated were placed in appropriate wells, and serial diluted in successive wells to provide 11 dilutions. The concentrations ranged from 64 through 0.06 μg/ml. An adjusted inoculum of fungi (50 μl) was added to each well and the plates were incubated at 35° C. for 24-48 hours. […] Nystatin and amphotericin B were used for the purpose of comparison.

Candida parapsilosis = test: Antifungal MIC, microtiter broth dilution; details: 35° C., 24-48 hours
Method: as §1

Candida rugosa = test: Antifungal MIC, microtiter broth dilution; details: Candida rugosa strain 94-10; 35° C., 24-48 hours
Method: as §1

Candida krussii = test: Antifungal MIC, microtiter broth dilution; details: Candida krussii strain 94-2; 35° C., 24-48 hours
Method: as §1

Candida tropicalis = test: Antifungal MIC, microtiter broth dilution; details: 35° C., 24-48 hours
Method: as §1

Candida pseudotropicalis = test: Antifungal MIC, microtiter broth dilution; details: Candida pseudotropicalis strain ATCC 28838; 35° C., 24-48 hours
Method: as §1

Aspergillus niger = test: Antifungal MIC, microtiter broth dilution; details: 35° C., 24-48 hours
Method: as §1

Candida albicans = test: Antifungal MIC, microtiter broth dilution; details: 35° C., 24-48 hours
Method: as §1

Candida lusitaniae = test: Antifungal MIC, microtiter broth dilution; details: Candida lusitaniae strain 94-3; 35° C., 24-48 hours
Method: as §1

[1] = system: U87MG human glioblastoma cells; test: Inhibition of U87MG human glioblastoma cell growth (3H-thymidine incorporation); details: 48 hours incubation
Method: The antineoplastic activity of the compounds of this invention were confirmed in a standard pharmacological test procedure which measures the inhibition of U87MG human glioblastoma cell growth (as a function of ^3H-thymidine incorporation), using 7-desmethylrapamycin 42-ester with 3-hydroxy-2-(hydroxymethyl)-2-methylpropionic acid (Compound I) as are presentative compound of this invention. The following briefly describes the procedure used and results obtained. U87MG human glioblastoma cells (ATCC # HTB-14; available from the American Type Culture Collection; 10801 University Boulevard; Manassas, Va. 20110;), were grown in the following media.
BRL Minimum Essential Medium with Earle Salts (500 mL)
+5 mL BRL MEM Non-Essential Amino Acids (10 mM)
+5 mL BRL Penicillin-Streptomycin (10000 u/mL, 10000 μg/mL)
+5 mL BRL Na Pyruvate Solution (100 mM)
+5 mL BRL L-Glutamine 200 mM
+50 mL BRL Fetal Bovine Serum (Qualified)
1. Cells were trypsinized and plated at a concentration of 10^4 cells/well in a final volume of 200 μL growth medium in 96-well flat bottom plates and allowed to adhere for 24 hours at 37° C.
2. The media was removed by aspiration with care to not disturb the cell monolayer. 200 μL of fresh growth media was added per well, allowing enough wells for samples to be run in triplicate. […]
4. […] Mats were counted in a Wallac Betaplate counter.

[2] = Candida parapsilosis strain 94-8
[3] = Candida parapsilosis strain 94-9
[4] = Candida parapsilosis strain ATCC 90018
[5] = Candida tropicalis strain 94-13
[6] = Candida tropicalis strain 94-14
[7] = Candida albicans strain ATCC 90028

Question: With `C[C@@H]1[C@H](O)[C@@H](C)/C=C/C=C/C=C/C=C/C=C/C=C/C=C/[C@H](O[C@@H]2O[C@H](C)[C@@H](O)[C@H](N)[C@@H]2O)C[C@@H]2O[C@](O)(C[C@@H](O)C[C@@H](O)[C@H](O)CC[C@@H](O)C[C@@H](O)CC(=O)O[C@H]1C)C[C@H](O)[C@H]2C(=O)O` [Amphotericin B, amphotericin B] as the compound, how does the “ANTIFUNGAL ACTIVITY (MIC)” value (Aspergillus fumigatus) read?
Answer: Its value is 0.25 µg/mL.

Question: What about the “ANTIFUNGAL ACTIVITY (MIC)” value (Candida parapsilosis; [2]) of the same compound?
Answer: Its value is “≦0.06 μg/mL”.

Question: And the “ANTIFUNGAL ACTIVITY (MIC)” value (Candida parapsilosis; [3])?
Answer: Its value is 0.12 µg/mL.

Question: What about the “ANTIFUNGAL ACTIVITY (MIC)” value (Candida parapsilosis; [4]) of the same compound?
Answer: The value was “≦0.06 μg/mL”.

Question: And the “ANTIFUNGAL ACTIVITY (MIC)” value (Candida rugosa)?
Answer: Its value is 0.25 µg/mL.

Question: And the “ANTIFUNGAL ACTIVITY (MIC)” value (Candida krussii)?
Answer: The value was 0.12 µg/mL.

Question: What about the “ANTIFUNGAL ACTIVITY (MIC)” value (Candida tropicalis; [5]) of the same compound?
Answer: The value was “≦0.06 μg/mL”.

Question: What about the “ANTIFUNGAL ACTIVITY (MIC)” value (Candida tropicalis; [6]) of the same compound?
Answer: Its value is “≦0.06 μg/mL”.

Question: What about the “ANTIFUNGAL ACTIVITY (MIC)” value (Candida pseudotropicalis) of the same compound?
Answer: The value was “≦0.06 μg/mL”.

Question: What about the “ANTIFUNGAL ACTIVITY (MIC)” value (Aspergillus niger; Aspergillus niger strain S399) of the same compound?
Answer: Its value is 0.50 µg/mL.

Question: What about the “ANTIFUNGAL ACTIVITY (MIC)” value (Aspergillus niger; Aspergillus niger strain S430) of the same compound?
Answer: The value was 0.25 µg/mL.

Question: What about the “ANTIFUNGAL ACTIVITY (MIC)” value (Candida albicans; Candida albicans strain 1063) of the same compound?
Answer: Its value is “≦0.06 μg/mL”.

Question: What about the “ANTIFUNGAL ACTIVITY (MIC)” value (Candida albicans; Candida albicans strain 1117) of the same compound?
Answer: Its value is 0.12 µg/mL.

Question: And the “ANTIFUNGAL ACTIVITY (MIC)” value (Candida albicans; [7])?
Answer: Its value is 0.12 µg/mL.

Question: What about the “ANTIFUNGAL ACTIVITY (MIC)” value (Candida lusitaniae) of the same compound?
Answer: Its value is “≦0.06 μg/mL”.

Question: Which results are given for `CO[C@@H]1C[C@H](C[C@@H](C)[C@@H]2CC(=O)[C@H](C)/C=C(\C)[C@@H](O)[C@@H](OC)C(=O)[C@H](C)C[C@H](C)/C=C/C=C/C=C(\C)[C@@H](O)C[C@@H]3CC[C@@H](C)[C@@](O)(O3)C(=O)C(=O)N3CCCC[C@H]3C(=O)O2)CC[C@H]1OC(=O)C(C)(CO)CO` [Compound I, 7-Desmethylrapamycin 42-ester with 3-hydroxy-2-(hydroxymethyl)-2-methylpropionic acid]?
Answer: ANTIFUNGAL ACTIVITY (MIC) (Aspergillus fumigatus): 64 µg/mL; ANTIFUNGAL ACTIVITY (MIC) (Candida parapsilosis; [2]): 2 µg/mL; ANTIFUNGAL ACTIVITY (MIC) (Candida parapsilosis; [3]): 4 µg/mL; ANTIFUNGAL ACTIVITY (MIC) (Candida parapsilosis; [4]): 2 µg/mL; ANTIFUNGAL ACTIVITY (MIC) (Candida rugosa): 2 µg/mL; ANTIFUNGAL ACTIVITY (MIC) (Candida krussii): 0.5 µg/mL; ANTIFUNGAL ACTIVITY (MIC) (Candida tropicalis; [5]): 1 µg/mL; ANTIFUNGAL ACTIVITY (MIC) (Candida tropicalis; [6]): 1 µg/mL; ANTIFUNGAL ACTIVITY (MIC) (Candida pseudotropicalis): 2 µg/mL; ANTIFUNGAL ACTIVITY (MIC) (Aspergillus niger; Aspergillus niger strain S399): 64 µg/mL; ANTIFUNGAL ACTIVITY (MIC) (Aspergillus niger; Aspergillus niger strain S430): 64 µg/mL; ANTIFUNGAL ACTIVITY (MIC) (Candida albicans; Candida albicans strain 1063): 1 µg/mL; ANTIFUNGAL ACTIVITY (MIC) (Candida albicans; Candida albicans strain 1117): 4 µg/mL; ANTIFUNGAL ACTIVITY (MIC) (Candida albicans; [7]): 1 µg/mL; ANTIFUNGAL ACTIVITY (MIC) (Candida lusitaniae): 1 µg/mL; IC50 [1]: 0.0065 µg/mL (≈ 6.4 nM)

Question: For `C[C@@H]1[C@H](O)[C@@H](C)/C=C/C=C/CC/C=C/C=C/C=C/C=C/C(O[C@H]2O[C@H](C)[C@@H](O)[C@H](N)[C@@H]2O)CC2O[C@](O)(CC(O)C(O)CCC(O)CC(O)CC(O)CC(=O)O[C@H]1C)CC(O)C2C(=O)O` (stereo partly shown) [Nystatin], which “ANTIFUNGAL ACTIVITY (MIC)” value (Aspergillus fumigatus) is on record?
Answer: The value was 2 µg/mL.

Question: What about the “ANTIFUNGAL ACTIVITY (MIC)” value (Candida parapsilosis; [2]) of the same compound?
Answer: The value was 2 µg/mL.

Question: And the “ANTIFUNGAL ACTIVITY (MIC)” value (Candida parapsilosis; [3])?
Answer: Its value is 1 µg/mL.

Question: What about the “ANTIFUNGAL ACTIVITY (MIC)” value (Candida parapsilosis; [4]) of the same compound?
Answer: The value was 2 µg/mL.

Question: What about the “ANTIFUNGAL ACTIVITY (MIC)” value (Candida rugosa) of the same compound?
Answer: The value was 1 µg/mL.

Question: What about the “ANTIFUNGAL ACTIVITY (MIC)” value (Candida krussii) of the same compound?
Answer: The value was 1 µg/mL.

Question: And the “ANTIFUNGAL ACTIVITY (MIC)” value (Candida tropicalis; [5])?
Answer: Its value is 1 µg/mL.

Question: And the “ANTIFUNGAL ACTIVITY (MIC)” value (Candida tropicalis; [6])?
Answer: The value was 1 µg/mL.

Question: And the “ANTIFUNGAL ACTIVITY (MIC)” value (Candida pseudotropicalis)?
Answer: The value was 1 µg/mL.

Question: And the “ANTIFUNGAL ACTIVITY (MIC)” value (Aspergillus niger; Aspergillus niger strain S399)?
Answer: The value was 2 µg/mL.

Question: What about the “ANTIFUNGAL ACTIVITY (MIC)” value (Aspergillus niger; Aspergillus niger strain S430) of the same compound?
Answer: The value was 1 µg/mL.

Question: And the “ANTIFUNGAL ACTIVITY (MIC)” value (Candida albicans; Candida albicans strain 1063)?
Answer: The value was 1 µg/mL.

Question: And the “ANTIFUNGAL ACTIVITY (MIC)” value (Candida albicans; Candida albicans strain 1117)?
Answer: Its value is 1 µg/mL.

Question: What about the “ANTIFUNGAL ACTIVITY (MIC)” value (Candida albicans; [7]) of the same compound?
Answer: The value was 1 µg/mL.

Question: And the “ANTIFUNGAL ACTIVITY (MIC)” value (Candida lusitaniae)?
Answer: Its value is 1 µg/mL.
